Like-named read-outs stand apart in the source and are kept apart here.
Key:
[1] = Study 2: ascending repeated-dose PK in healthy adults; format: in vivo, human; conditions: for AUC0-24, Geometric mean / AUC0-24, Mean / Cmax, Geometric mean / Cmax, Mean / tmax, median / CLR(0-24), Mean / CLss/F, Geometric mean / CLss/F, Mean / Ctrough, Geometric mean / Ctrough, Mean / CLR(0-24), Geometric mean / half-life: N = 9; for half-life: plasma
Description: The study enrolled and randomized 36 healthy adults (19 men and 17 women) (n=9 each to group).
Pharmacodynamic endpoints (plasma GL-1, GL-3, and GM3 concentrations) were assessed on Days 1-5, 8, 11, 13, and 14, at 0 hours […]; and on Day 15, at 24 hours after the Day 14 dose.

[2] = Clinical study in GD-3 patients (LEAP): Compound 2 concentrations in plasma and CSF; format: in vivo, human
Excerpt: The endpoint assessments are related to safety, CSF biomarkers, pharmacokinetics/pharmacodynamics, systemic disease, and neuroimaging and neurological function (CNS/neurological manifestations).
Patients 18 years of age or older with a clinical diagnosis of GD3 and documented deficiency of acid beta-glucosidase activity having received treatment with ERT for at least 3 years and with imiglucerase (Cerezyme) at a stable monthly dose for at least 6 months prior to enrollment were included in the study. Patients must have reached the following GD therapeutic goals: hemoglobin level of ≥11.0 g/dL for females and ≥12.0 g/dL for males; platelet count 100 000/mm^3; spleen volume <10 multiples of normal (MN), or total splenectomy (provided the splenectomy occurred ≥3 years prior to randomization); liver volume <1.5 MN; and no bone crisis and free of symptomatic bone disease such as bone pain attributable to osteonecrosis and/or pathological fractures within the last year. Patients must have GD3 featuring oculomotor apraxia (supranuclear gaze palsy) characterized by a horizontal saccade abnormality.
During the study patients were evaluated for safety and tolerability, CSF and plasma biomarkers (glucosylceramide, GL-1; glucosylsphingosine, lyso-GL1), pharmacokinetics, markers for systemic disease (spleen and liver volume measured by magnetic resonance imaging (MRI), platelet count, hemoglobin levels), indicia of interstitial lung disease (high resolution pulmonary computed tomography (CT)), and horizontal saccadic eye movement. In addition, exploratory biomarkers were quantified in CSF of GD3 patients: ceramide (the precursor of GL-1), chitotriosidase (CHITO), GM3, and GPNMB. Symptoms of ataxia were measured using the SARA scale, neurological symptoms were measured using the trail making test, and functional MRI was used to assess neural connectivity in the brain.
It is believed that this is due to either compliance or dosing errors, and therefore, analysis is repeated without Patient 5's Week 26 and 52 data included.

[3] = repeated once-daily doses from 5-20 mg
[4] = plasma, Day 1, N = 11, 15 mg/day + imiglucerase

## CC(C)(NC(=O)O[C@@H]1CN2CCC1CC2)c1csc(-c2ccc(F)cc2)n1 [Compound 2, (S)-quinuclidin-3-yl 2-(2-(4-fluorophenyl)thiazol-4-yl)propan-2-ylcarbamate]
[1]; 5, 10, or 20 mg once daily for 14 days
  Ctrough values over time: reached a plateau after Day 5
[1]; 5, 10, or 20 mg once daily for 14 days, Days 1 and 14
  median time of plasma Cmax: 2 to 5 h
[1]; Day 1, 5 mg once daily
  AUC0-24, Geometric mean: 292 ng·h/mL
  AUC0-24, Mean: 296 ng·h/mL
  Cmax, Geometric mean: 0.0182 µg/mL
  Cmax, Mean: 0.0185 µg/mL
  tmax, median: 5.00 h
[1]; Day 1, 10 mg once daily
  AUC0-24, Geometric mean: 623 ng·h/mL
  AUC0-24, Mean: 635 ng·h/mL
  Cmax, Geometric mean: 0.0378 µg/mL
  Cmax, Mean: 0.0385 µg/mL
  tmax, median: 3.00 h
[1]; Day 1, 20 mg once daily
  AUC0-24, Geometric mean: 1,080 ng · h/mL
  AUC0-24, Mean: 1,100 ng · h/mL
  Cmax, Geometric mean: 0.0665 µg/mL
  Cmax, Mean: 0.068 µg/mL
  tmax, median: 3.07 h
[1]; Day 14, 5 mg once daily
  AUC0-24, Geometric mean: 632 ng·h/mL
  AUC0-24, Mean: 642 ng·h/mL
  CLR(0-24), Mean: 1.55 L/h
  CLss/F, Geometric mean: 5.9 L/h
  CLss/F, Mean: 5.98 L/h
  Cmax, Geometric mean: 0.0365 µg/mL
  Cmax, Mean: 0.037 µg/mL
  Ctrough, Geometric mean: 0.019 µg/mL
  Ctrough, Mean: 0.0194 µg/mL
  tmax, median: 3.00 h
[1]; Day 14, 10 mg once daily
  AUC0-24, Geometric mean: 1,490 ng · h/mL
  AUC0-24, Mean: 1,550 ng · h/mL
  CLR(0-24), Geometric mean: 1.4 L/h
  CLR(0-24), Mean: 1.49 L/h
  CLss/F, Geometric mean: 5.0 L/h
  CLss/F, Mean: 5.13 L/h
  Cmax, Geometric mean: 0.086 µg/mL
  Cmax, Mean: 0.0897 µg/mL
  Ctrough, Geometric mean: 0.0475 µg/mL
  Ctrough, Mean: 0.0499 µg/mL
  tmax, median: 2.00 h
[1]; Day 14, 20 mg once daily
  AUC0-24, Geometric mean: 2,340 ng · h/mL
  AUC0-24, Mean: 2,420 ng · h/mL
  CLR(0-24), Geometric mean: 2.0 L/h
  CLR(0-24), Mean: 2.07 L/h
  CLss/F, Geometric mean: 6.4 L/h
  CLss/F, Mean: 6.58 L/h
  Cmax, Geometric mean: 0.137 µg/mL
  Cmax, Mean: 0.142 µg/mL
  Ctrough, Geometric mean: 0.0699 µg/mL
  Ctrough, Mean: 0.0733 µg/mL
  tmax, median: 3.00 h
[1]; both sexes, human, oral, 5 mg, Day 14, 5 mg once daily, read-out: t1/2, Geometric mean (converted)
  half-life: 29 h
[1]; both sexes, human, oral, 5 mg, Day 14, 5 mg once daily, read-out: t1/2, Mean (converted)
  half-life: 29.3 h
[1]; both sexes, human, oral, 10 mg, Day 14, 10 mg once daily, read-out: t1/2, Geometric mean (converted)
  half-life: 31.2 h
[1]; both sexes, human, oral, 10 mg, Day 14, 10 mg once daily, read-out: t1/2, Mean (converted)
  half-life: 31.3 h
[1]; both sexes, human, oral, 20 mg, Day 14, 20 mg once daily, read-out: t1/2, Geometric mean (converted)
  half-life: 34.5 h
[1]; both sexes, human, oral, 20 mg, Day 14, 20 mg once daily, read-out: t1/2, Mean (converted)
  half-life: 35 h
[1]; both sexes, human, urine and plasma, oral, After 14 once-daily doses, 5-20 mg, read-out: Mean CLR(0-24)
  CL renal: 24.8 to 34.5 mL/min
[1]; [3]
  effect of age and gender on accumulation: neither age nor gender affected accumulation
  time to steady state: ≤ 5 days
[2]; CSF, Day 1, N = 6, 15 mg/day + imiglucerase
  Concentration 2-4 hours post dose (mean ± SD): <LLOQ
[2]; CSF, Week 4, N = 6, 15 mg/day + imiglucerase
  Concentration 2-4 hours post dose (mean ± SD): 0.00456 ± 0.0012 µg/mL
[2]; CSF, Week 4, N = 10 (Patient 5 excluded), 15 mg/day + imiglucerase
  Concentration 2-4 hours post dose (mean ± SD): 0.00663 ± 0.00242 µg/mL
[2]; CSF, Week 4, Patient 5 Only
  Concentration 2-4 hours post dose: 0.00305 µg/mL
[2]; CSF, Week 26, Excluding Patient 5, 15 mg/day + imiglucerase
  Concentration 2-4 hours post dose (mean): 0.00613 µg/mL
[2]; CSF, Week 26, N = 6, 15 mg/day + imiglucerase
  Concentration 2-4 hours post dose (mean ± SD): 0.00526 ± 0.00249 µg/mL
[2]; CSF, Week 26, N = 8 (Patient 5 excluded), 15 mg/day + imiglucerase
  Concentration 2-4 hours post dose (mean ± SD): 0.00677 ± 0.00196 µg/mL
[2]; CSF, Week 26, Patient 5 Only
  Concentration 2-4 hours post dose: 0.00177 µg/mL
[2]; CSF, Week 52, Excluding Patient 5, 15 mg/day + imiglucerase
  Concentration 2-4 hours post dose (mean): 0.00532 µg/mL
[2]; CSF, Week 52, N = 6, 15 mg/day + imiglucerase
  Concentration 2-4 hours post dose (mean ± SD): 0.00443 ± 0.00323 µg/mL
[2]; CSF, Week 52, N = 10 (Patient 5 excluded), 15 mg/day + imiglucerase
  Concentration 2-4 hours post dose (mean ± SD): 0.00614 ± 0.00344 µg/mL
[2]; CSF, Week 52, Patient 5 Only
  Concentration 2-4 hours post dose: <LLOQ
[2]; GD3 patients, 15 mg/day + imiglucerase
  steady state concentration reached in plasma and CSF: ≤ 4 Week
[2]; Patient 1, 52-week measurement, rifampicin Week 39 to Week 51
  plasma and CSF concentrations under co-treatment with CYP3A4 inducer rifampicin: significant drop in plasma and CSF concentrations
[2]; Patient 5, Week 26 (compliance or dosing errors believed)
  lower concentrations of Compound 2 in plasma and CSF: about 50%
[2]; Patient 5, Week 52
  concentrations of Compound 2 in plasma and CSF: undetectable
[2]; Plasma, Week 4, N = 10 (Patient 5 excluded), 15 mg/day + imiglucerase
  Concentration 2-4 hours post dose (mean ± SD): 0.116 ± 0.0481 µg/mL
[2]; Plasma, Week 4, Patient 5 Only
  Concentration 2-4 hours post dose: 0.102 µg/mL
[2]; Plasma, Week 26, N = 10 (Patient 5 excluded), 15 mg/day + imiglucerase
  Concentration 2-4 hours post dose (mean ± SD): 0.12 ± 0.0401 µg/mL
[2]; Plasma, Week 26, Patient 5 Only
  Concentration 2-4 hours post dose: 0.0533 µg/mL
[2]; Plasma, Week 52, N = 10 (Patient 5 excluded), 15 mg/day + imiglucerase
  Concentration 2-4 hours post dose (mean ± SD): 0.114 ± 0.0658 µg/mL
[2]; Plasma, Week 52, Patient 5 Only
  Concentration 2-4 hours post dose: <LLOQ
[2]; from plasma and CSF concentrations, N = 6, 15 mg/day + imiglucerase
  crossing of the blood-brain barrier: effectively cross the blood-brain barrier in all patients
[2]; plasma, Day 1, N = 6, 15 mg/day + imiglucerase
  Concentration 2-4 hours post dose (mean ± SD): 0.0397 ± 0.0126 µg/mL
[2]; [4]
  AUC0-24 (mean ± SD): 0.851 ± 0.282 µg·h/mL
  Cmax (mean ± SD): 0.0581 ± 0.0264 µg/mL
[2]; plasma, Week 4, N = 6, 15 mg/day + imiglucerase
  Concentration 2-4 hours post dose (mean ± SD): 0.0923 ± 0.0364 µg/mL
[2]; plasma, Week 26, Excluding Patient 5, 15 mg/day + imiglucerase
  Concentration 2-4 hours post dose (mean): 0.112 µg/mL
[2]; plasma, Week 26, N = 6, 15 mg/day + imiglucerase
  Concentration 2-4 hours post dose (mean ± SD): 0.102 ± 0.0495 µg/mL
[2]; plasma, Week 52, Excluding Patient 5, 15 mg/day + imiglucerase
  Concentration 2-4 hours post dose (mean): 0.084 µg/mL
[2]; plasma, Week 52, N = 6, 15 mg/day + imiglucerase
  Concentration 2-4 hours post dose (mean ± SD): 0.0698 ± 0.0583 µg/mL

Reference: patent US12083115B2, “Methods for treating neurological symptoms associated with lysosomal storage diseases” (Genzyme Corporation, priority 2020, dated 2024)
